Experimental data taken from patent US20160375006A1, “USES OF PARALOG-SELECTIVE INHIBITORS OF GSK3 KINASES” (priority 2012, published 2016).
Read-outs that look alike come from different tables or passages of the source.

Columns and labels:
PIM2 = PIM2 (Homo sapiens, UniProt Q9P1W9)
Method: (§1) This was completed utilizing one of two assays depending on the kinase being examined.
(§2) A solution of IMAP binding reagent (IMAP Screening Express kit; Molecular Devices) (60 μL) was added to each well and incubated for 30 minutes.
(§3) A solution of termination buffer (QuickScout Screening assist MSA; Carna Biosciences) (60 μL) was added to each well. The entire reaction mixture was then applied to a LabChip3000 system (Caliper Life Science) and the product and substrate peptide peaks were separated and quantified.
(§4) The assay utilized was identical to that of the single point inhibitory activity determination (MSA) but run in dose response. […] A solution of termination buffer (QuickScout Screening assist MSA; Carna Biosciences) (60 μL) was added to each well. The entire reaction mixture was then applied to a LabChip3000 system (Caliper Life Science) and the product and substrate peptide peaks were separated and quantified.

CDK2/CycA2 = CDK2/CycA2 (Homo sapiens, UniProt P24941)
Method: as §1, §2, §3, §4

DDR1 = DDR1 (Homo sapiens, UniProt Q08345)
Method: as §1, §2, §3, §4

CLK2 = CLK2 (Homo sapiens, UniProt P49760)
Method: as §1, §2, §3, §4

CaMK1α = CaMK1α (Homo sapiens, UniProt Q14012)
Method: as §1, §2, §3, §4

PDHK2 = PDHK2 (Homo sapiens, UniProt Q15119)
Method: as §1, §2, §3, §4

MET = MET (Homo sapiens, UniProt P08581)
Method: as §2, §3, §4

MER = MER (Homo sapiens, UniProt Q12866)
Method: as §1, §2, §3, §4

WNK2 = WNK2 (Homo sapiens, UniProt Q9Y3S1)
Method: as §1, §2, §3, §4

RSK2 = RSK2 (Homo sapiens, UniProt P51812)
Method: as §1, §2, §3, §4

WNK3 = WNK3 (Homo sapiens, UniProt Q9BYP7)
Method: as §1, §2, §3, §4

SGK2 = SGK2 (Homo sapiens, UniProt Q9HBY8)
Method: as §1, §2, §3, §4

YES(T348I) = YES(T348I) (Homo sapiens, UniProt P07947, T348I)
Method: as §1, §2, §3, §4

BRK = BRK (Homo sapiens, UniProt Q13882)
CLK3 = CLK3 (Homo sapiens, UniProt P49761)
CK1δ = CK1δ (Homo sapiens, UniProt P48730)
PKD1 = PKD1 (Homo sapiens, UniProt Q15139)
Method: as §1, §2, §3, §4

skMLCK = skMLCK (Homo sapiens, UniProt Q9H1R3)
Method: as §1, §2, §3, §4

HCK = HCK (Homo sapiens, UniProt P08631)
Method: as §1, §2, §3

AurC = AurC (Homo sapiens, UniProt Q9UQB9)
Method: as §1, §2, §3

TAK1-TAB1_Cascade = TAK1-TAB1_Cascade (Homo sapiens, UniProt O43318)
Method: as §1, §2, §3, §4

PBK = PBK (Homo sapiens, UniProt Q96KB5)
Method: as §1, §2, §3, §4

FMS = FMS (Homo sapiens, UniProt P07333)
Method: as §1, §2, §3, §4

EPHB2 = EPHB2 (Homo sapiens, UniProt P29323)
Method: as §1, §2, §3, §4

SLK = SLK (Homo sapiens, UniProt Q9H2G2)
Method: as §1, §2, §3, §4

PDK1 = PDK1 (Homo sapiens, UniProt O15530)
Method: as §1, §2, §3, §4

CaMK2δ = CaMK2δ (Homo sapiens, UniProt Q13557)
Method: as §1, §2, §3, §4

BLK = BLK (Homo sapiens, UniProt P51451)
Method: as §1, §2, §3, §4

EGFR(L858R) = EGFR(L858R) (Homo sapiens, UniProt P00533, L858R)
Method: as §1, §2, §3, §4

KIT = KIT (Homo sapiens, UniProt P10721)
Method: as §1, §2, §3

FGFR3(K650M) = FGFR3(K650M) (Homo sapiens, UniProt P22607, K650M)
Method: as §2, §3, §4

MAP4K2 = MAP4K2 (Homo sapiens, UniProt Q12851)
Method: as §1, §2, §3, §4

MNK1 = MNK1 (Homo sapiens, UniProt Q9BUB5)
Method: as §1, §2, §3, §4

ABL = ABL (Homo sapiens, UniProt P00519)
Method: as §1, §2, §3, §4

NEK6 = NEK6 (Homo sapiens, UniProt Q9HC98)
Method: as §1, §2, §3

RON = RON (Homo sapiens, UniProt Q04912)
Method: as §1, §2, §3, §4

Erk2 = Erk2 (Homo sapiens, UniProt P28482)
Method: as §1, §2, §3

RET(G691S) = RET(G691S) (Homo sapiens, UniProt P07949, G691S)
Method: as §1, §2, §3

EPHB4 = EPHB4 (Homo sapiens, UniProt P54760)
Method: as §1, §2, §3, §4

PAK5 = PAK5 (Homo sapiens, UniProt Q9P286)
Method: as §1, §2, §3

Sequence of BLK (P51451 whole entry): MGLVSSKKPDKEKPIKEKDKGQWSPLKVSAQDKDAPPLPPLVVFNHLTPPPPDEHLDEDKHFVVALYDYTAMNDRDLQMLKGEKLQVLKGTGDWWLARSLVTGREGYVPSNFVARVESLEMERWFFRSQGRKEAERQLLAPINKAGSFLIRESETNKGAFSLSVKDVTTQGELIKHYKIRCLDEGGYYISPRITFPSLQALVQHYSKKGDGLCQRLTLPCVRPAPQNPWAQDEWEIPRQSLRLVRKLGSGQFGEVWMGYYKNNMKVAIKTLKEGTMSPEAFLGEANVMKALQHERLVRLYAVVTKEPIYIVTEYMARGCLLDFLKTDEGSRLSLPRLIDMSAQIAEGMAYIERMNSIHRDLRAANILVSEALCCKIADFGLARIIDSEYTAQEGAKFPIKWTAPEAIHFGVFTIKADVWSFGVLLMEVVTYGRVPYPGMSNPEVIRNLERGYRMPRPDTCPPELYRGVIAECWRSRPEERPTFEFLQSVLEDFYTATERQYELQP
Sequence of WNK2 (Q9Y3S1 whole entry): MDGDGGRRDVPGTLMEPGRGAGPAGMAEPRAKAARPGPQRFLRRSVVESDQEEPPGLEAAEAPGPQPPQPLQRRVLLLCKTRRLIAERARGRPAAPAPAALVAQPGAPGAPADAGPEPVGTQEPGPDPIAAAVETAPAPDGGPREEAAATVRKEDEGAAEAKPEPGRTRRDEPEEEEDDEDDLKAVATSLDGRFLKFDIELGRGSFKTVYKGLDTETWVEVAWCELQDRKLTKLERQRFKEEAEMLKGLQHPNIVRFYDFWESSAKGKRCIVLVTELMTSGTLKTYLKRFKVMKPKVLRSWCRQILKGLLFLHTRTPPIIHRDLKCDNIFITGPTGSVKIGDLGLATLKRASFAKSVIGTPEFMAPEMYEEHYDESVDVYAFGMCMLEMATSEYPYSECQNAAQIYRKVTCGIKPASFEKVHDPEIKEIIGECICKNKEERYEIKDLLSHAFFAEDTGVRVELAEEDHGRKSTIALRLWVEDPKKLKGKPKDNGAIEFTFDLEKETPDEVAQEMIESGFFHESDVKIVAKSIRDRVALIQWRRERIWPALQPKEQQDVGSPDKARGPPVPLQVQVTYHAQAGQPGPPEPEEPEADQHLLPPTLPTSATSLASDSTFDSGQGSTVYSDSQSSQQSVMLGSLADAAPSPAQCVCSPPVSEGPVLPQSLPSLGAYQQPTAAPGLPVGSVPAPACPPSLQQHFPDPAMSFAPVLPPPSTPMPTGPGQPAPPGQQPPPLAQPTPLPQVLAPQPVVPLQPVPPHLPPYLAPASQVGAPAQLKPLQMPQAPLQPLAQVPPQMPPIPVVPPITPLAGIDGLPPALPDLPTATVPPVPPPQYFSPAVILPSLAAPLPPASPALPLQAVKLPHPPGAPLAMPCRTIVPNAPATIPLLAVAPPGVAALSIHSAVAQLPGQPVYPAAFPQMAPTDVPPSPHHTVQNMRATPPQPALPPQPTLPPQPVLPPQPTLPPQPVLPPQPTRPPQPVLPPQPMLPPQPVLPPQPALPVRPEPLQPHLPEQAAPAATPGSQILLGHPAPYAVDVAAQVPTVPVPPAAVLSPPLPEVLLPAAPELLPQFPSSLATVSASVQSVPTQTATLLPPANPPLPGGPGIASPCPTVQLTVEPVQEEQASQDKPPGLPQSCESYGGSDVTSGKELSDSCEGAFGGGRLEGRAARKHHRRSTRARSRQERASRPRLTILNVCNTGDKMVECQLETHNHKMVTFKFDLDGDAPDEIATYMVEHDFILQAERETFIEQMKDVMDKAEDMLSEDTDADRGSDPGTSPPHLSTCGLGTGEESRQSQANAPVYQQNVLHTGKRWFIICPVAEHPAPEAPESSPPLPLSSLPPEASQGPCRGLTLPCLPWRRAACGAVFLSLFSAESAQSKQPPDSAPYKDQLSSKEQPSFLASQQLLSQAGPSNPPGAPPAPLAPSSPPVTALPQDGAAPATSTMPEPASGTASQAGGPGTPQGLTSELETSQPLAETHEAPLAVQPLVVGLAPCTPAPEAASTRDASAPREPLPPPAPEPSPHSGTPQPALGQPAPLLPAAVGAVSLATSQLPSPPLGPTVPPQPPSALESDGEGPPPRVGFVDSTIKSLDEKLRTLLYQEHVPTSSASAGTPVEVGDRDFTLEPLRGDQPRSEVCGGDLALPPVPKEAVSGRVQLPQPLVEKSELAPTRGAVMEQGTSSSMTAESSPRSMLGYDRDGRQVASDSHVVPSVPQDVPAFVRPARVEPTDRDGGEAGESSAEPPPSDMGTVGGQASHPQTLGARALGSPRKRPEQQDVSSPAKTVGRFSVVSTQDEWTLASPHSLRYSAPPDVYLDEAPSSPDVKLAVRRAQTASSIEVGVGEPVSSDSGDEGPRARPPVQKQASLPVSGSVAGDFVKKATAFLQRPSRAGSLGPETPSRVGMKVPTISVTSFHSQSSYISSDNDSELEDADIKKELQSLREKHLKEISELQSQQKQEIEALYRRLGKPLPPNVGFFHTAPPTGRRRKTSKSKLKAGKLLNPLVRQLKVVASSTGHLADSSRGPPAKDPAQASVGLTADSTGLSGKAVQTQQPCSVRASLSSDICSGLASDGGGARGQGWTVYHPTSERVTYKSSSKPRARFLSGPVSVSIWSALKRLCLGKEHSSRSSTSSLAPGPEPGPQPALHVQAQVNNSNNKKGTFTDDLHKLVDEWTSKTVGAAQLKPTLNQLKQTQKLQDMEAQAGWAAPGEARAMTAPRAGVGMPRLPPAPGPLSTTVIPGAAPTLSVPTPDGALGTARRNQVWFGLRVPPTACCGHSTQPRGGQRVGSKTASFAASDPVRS
Sequence of MAP4K2 (Q12851 whole entry): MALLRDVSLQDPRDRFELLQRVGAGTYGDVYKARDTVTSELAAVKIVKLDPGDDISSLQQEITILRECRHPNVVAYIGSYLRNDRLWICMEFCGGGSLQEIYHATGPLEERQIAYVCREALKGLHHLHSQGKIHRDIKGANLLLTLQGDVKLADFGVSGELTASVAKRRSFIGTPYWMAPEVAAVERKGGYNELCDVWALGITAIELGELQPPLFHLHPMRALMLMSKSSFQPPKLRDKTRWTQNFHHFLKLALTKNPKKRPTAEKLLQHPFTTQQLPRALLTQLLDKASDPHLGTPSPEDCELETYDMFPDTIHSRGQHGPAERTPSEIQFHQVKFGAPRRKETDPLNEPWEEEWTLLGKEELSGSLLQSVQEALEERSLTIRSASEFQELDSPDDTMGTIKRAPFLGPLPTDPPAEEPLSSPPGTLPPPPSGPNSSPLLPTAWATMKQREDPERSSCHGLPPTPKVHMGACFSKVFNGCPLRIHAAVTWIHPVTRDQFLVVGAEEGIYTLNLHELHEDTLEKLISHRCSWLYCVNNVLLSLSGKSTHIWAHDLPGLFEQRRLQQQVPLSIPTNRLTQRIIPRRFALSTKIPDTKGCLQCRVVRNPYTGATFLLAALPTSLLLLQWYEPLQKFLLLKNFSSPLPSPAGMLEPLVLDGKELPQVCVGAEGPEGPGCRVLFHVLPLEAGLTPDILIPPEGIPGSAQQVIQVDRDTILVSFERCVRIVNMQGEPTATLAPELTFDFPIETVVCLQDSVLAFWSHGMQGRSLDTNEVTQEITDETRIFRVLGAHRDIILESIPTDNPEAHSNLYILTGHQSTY
Sequence of NEK6 (Q9HC98 whole entry): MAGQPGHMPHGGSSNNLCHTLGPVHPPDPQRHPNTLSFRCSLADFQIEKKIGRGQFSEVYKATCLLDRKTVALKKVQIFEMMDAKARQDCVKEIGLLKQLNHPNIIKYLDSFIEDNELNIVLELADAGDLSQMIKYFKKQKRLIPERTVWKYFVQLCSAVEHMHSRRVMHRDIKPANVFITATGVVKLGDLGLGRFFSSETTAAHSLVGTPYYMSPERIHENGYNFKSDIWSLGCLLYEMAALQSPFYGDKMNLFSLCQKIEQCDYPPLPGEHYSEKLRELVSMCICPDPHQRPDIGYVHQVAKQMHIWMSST
Sequence of MER (Q12866 21-999): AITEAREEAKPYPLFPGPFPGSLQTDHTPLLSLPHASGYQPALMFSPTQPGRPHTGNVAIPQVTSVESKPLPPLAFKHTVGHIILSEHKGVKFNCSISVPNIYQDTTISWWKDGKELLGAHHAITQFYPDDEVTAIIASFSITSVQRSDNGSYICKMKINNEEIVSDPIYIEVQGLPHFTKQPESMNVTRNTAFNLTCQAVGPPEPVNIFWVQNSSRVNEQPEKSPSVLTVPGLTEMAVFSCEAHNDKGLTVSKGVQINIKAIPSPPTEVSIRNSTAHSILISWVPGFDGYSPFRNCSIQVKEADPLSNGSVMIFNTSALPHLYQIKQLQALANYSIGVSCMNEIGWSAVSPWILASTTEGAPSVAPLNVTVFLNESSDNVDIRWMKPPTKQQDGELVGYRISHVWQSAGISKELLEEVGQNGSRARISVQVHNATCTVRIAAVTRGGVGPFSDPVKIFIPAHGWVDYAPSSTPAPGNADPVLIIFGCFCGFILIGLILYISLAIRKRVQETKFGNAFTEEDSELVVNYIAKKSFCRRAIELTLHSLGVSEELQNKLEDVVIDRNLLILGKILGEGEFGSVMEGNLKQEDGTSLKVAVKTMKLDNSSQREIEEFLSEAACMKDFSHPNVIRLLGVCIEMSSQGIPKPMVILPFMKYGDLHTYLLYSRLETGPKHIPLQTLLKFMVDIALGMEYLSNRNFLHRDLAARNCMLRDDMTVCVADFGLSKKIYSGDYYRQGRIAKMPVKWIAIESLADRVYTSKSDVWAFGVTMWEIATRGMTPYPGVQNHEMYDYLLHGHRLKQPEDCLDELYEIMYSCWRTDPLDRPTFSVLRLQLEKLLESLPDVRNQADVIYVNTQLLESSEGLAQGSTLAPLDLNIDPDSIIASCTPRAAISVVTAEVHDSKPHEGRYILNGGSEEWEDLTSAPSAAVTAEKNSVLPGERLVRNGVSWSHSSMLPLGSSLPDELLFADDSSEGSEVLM

CC[C@@]1(c2ccccc2)C2=C(CC(C)(C)CC2=O)Nc2n[nH]cc21 [BRD0705]
% Inhibition at 10 μM (PIM2): 0.5% | % Inhibition at 10 μM (CDK2/CycA2; CDK2/CycA2): 65.3% | IC50 (CDK2/CycA2; read-out: IC50 CDK2/CycA2): 6.87 µM | % Inhibition at 10 μM (DDR1): −2.0% | % Inhibition at 10 μM (CLK2): −3.0% | % Inhibition at 10 μM (CaMK1α): −4.7% | % Inhibition at 10 μM (PDHK2): −0.5% | % Inhibition at 10 μM (MET): −2.4% | % Inhibition at 10 μM (MER): −3.3% | % Inhibition at 10 μM (WNK2): −5.0% | % Inhibition at 10 μM (RSK2): 0.4% | % Inhibition at 10 μM (WNK3): −3.7% | % Inhibition at 10 μM (SGK2): 0.8% | % Inhibition at 10 μM (YES(T348I)): 3.3% | % Inhibition at 10 μM (BRK): −1.4% | % Inhibition at 10 μM (CLK3): −1.5% | % Inhibition at 10 μM (CK1δ): −3.9% | % Inhibition at 10 μM (PKD1): −6.8% | % Inhibition at 10 μM (skMLCK): −2.5% | % Inhibition at 10 μM (HCK): 1.1% | % Inhibition at 10 μM (AurC): 7.3% | % Inhibition at 10 μM (TAK1-TAB1_Cascade): 5.0% | % Inhibition at 10 μM (PBK): −8.0% | % Inhibition at 10 μM (FMS): −8.2% | % Inhibition at 10 μM (EPHB2): 6.5% | % Inhibition at 10 μM (SLK): −10.7% | % Inhibition at 10 μM (PDK1): −6.7% | % Inhibition at 10 μM (CaMK2δ): −4.4% | % Inhibition at 10 μM (BLK): −3.4% | % Inhibition at 10 μM (EGFR(L858R)): −4.0% | % Inhibition at 10 μM (KIT): −0.3% | % Inhibition at 10 μM (FGFR3(K650M)): −2.7% | % Inhibition at 10 μM (MAP4K2): −0.7% | % Inhibition at 10 μM (MNK1): −5.2% | % Inhibition at 10 μM (ABL): 4.2% | % Inhibition at 10 μM (NEK6): −5.7% | % Inhibition at 10 μM (RON): −3.8% | % Inhibition at 10 μM (Erk2): 1.6% | % Inhibition at 10 μM (RET(G691S)): −5.6% | % Inhibition at 10 μM (EPHB4): 14.7% | % Inhibition at 10 μM (PAK5): 9.3%

CC(C)(C)Cc1[nH]nc2c1[C@](C)(c1ccccc1)C1=C(CC(C)(C)CC1=O)N2 [BRD3731]
% Inhibition 10 μM (PIM2; 10 μM): 0.8% | IC50 (CDK2/CycA2; CDK2/CycA2): > 10 µM | % Inhibition 10 μM (CDK2/CycA2; CDK2/CycA2, 10 μM): 36.3% | Fold Selectivity (CDK2/CycA2; IC50 CDK2/CycA2 / IC50 GSK3β): >370 fold | % Inhibition 10 μM (DDR1; 10 μM): 7.6% | % Inhibition 10 μM (CLK2; 10 μM): 6.1% | % Inhibition 10 μM (CaMK1α; 10 μM): 4.7% | % Inhibition 10 μM (PDHK2; 10 μM): 12.7% | % Inhibition 10 μM (MET; 10 μM): −0.8% | % Inhibition 10 μM (MER; 10 μM): 33.7% | % Inhibition 10 μM (WNK2; 10 μM): 1.6% | % Inhibition 10 μM (RSK2; 10 μM): 42.8% | % Inhibition 10 μM (WNK3; 10 μM): 2.1% | % Inhibition 10 μM (SGK2; 10 μM): 10.4% | % Inhibition 10 μM (YES(T348I); 10 μM): −2.3% | % Inhibition 10 μM (BRK; 10 μM): −5.6% | % Inhibition 10 μM (CLK3; 10 μM): 4.0% | % Inhibition 10 μM (CK1δ; 10 μM): 10.7% | % Inhibition 10 μM (PKD1; 10 μM): 8.9% | % Inhibition 10 μM (skMLCK; 10 μM): 9.4% | % Inhibition 10 μM (HCK; 10 μM): 6.6% | % Inhibition 10 μM (AurC; 10 μM): 4.9% | % Inhibition 10 μM (TAK1-TAB1_Cascade; 10 μM): 1.7% | % Inhibition 10 μM (PBK; 10 μM): 0.6% | % Inhibition 10 μM (FMS; 10 μM): 5.2% | % Inhibition 10 μM (EPHB2; 10 μM): 6.4% | % Inhibition 10 μM (SLK; 10 μM): −1.8% | % Inhibition 10 μM (PDK1; 10 μM): 2.0% | % Inhibition 10 μM (CaMK2δ; 10 μM): −0.3% | % Inhibition 10 μM (BLK; 10 μM): 4.9% | % Inhibition 10 μM (EGFR(L858R); 10 μM): −1.2% | % Inhibition 10 μM (KIT; 10 μM): −1.7% | % Inhibition 10 μM (FGFR3(K650M); 10 μM): 0.8% | % Inhibition 10 μM (MAP4K2; 10 μM): −7.5% | % Inhibition 10 μM (MNK1; 10 μM): −4.1% | % Inhibition 10 μM (ABL; 10 μM): 11.4% | % Inhibition 10 μM (NEK6; 10 μM): 0.0% | % Inhibition 10 μM (RON; 10 μM): 2.3% | % Inhibition 10 μM (Erk2; 10 μM): 0.9% | % Inhibition 10 μM (RET(G691S); 10 μM): −2.3% | % Inhibition 10 μM (EPHB4; 10 μM): 1.9% | % Inhibition 10 μM (PAK5; 10 μM): 6.5%
